# Reference: patent publication US6924143B2, “Method for increasing the growth rate of cells in static liquid media” (priority 2001, dated 2005)
# Test system: U. maydis wildtype strains
# Assay: Growth-assay of U. maydis strains in 384 well MTPs (FIG. 3A, absorbance at OD620)
# Format: cell-based, Ustilago maydis
# Settings: Hygromycin B 200 μg/ml, initial OD620 0,18, 1x minimal medium with 0,1% Kelzan, 30° C.
# Procedure: FIG. 3 illustrates growth-assay of U. maydis strains in 384 well MTPs. • A: The kinetik of the absorbance at OD620 for U. maydis wildtype strains was determined in a 384 well MTP using a Tecan ultra reader (rombus). As control served a strain, to which Hygromycin B was added in a concentration of 200 μg/ml (crosses). The initial OD620 for both strains was 0,18. […] GFP fluorescence of a U. maydis strain, in which GFP expression is controlled by the strong constitutive OMA promoter (squares), was determined in a Tecan plus reader. The excitation wavelength was 485 nm, the emission wavelength was 535 nm. […] Compared to lower temperatures, the increase in OD620 and the increase in fluorescence was faster. Experimental procedures: U. maydis strains where treated as described before in the Examples. The solution contained 1×minimal medium, 0,1% Kelzan and the assay was performed at 30° C. All experiments where repeated in independent duplicates.
structure (smiles),measurement,value
CN[C@H]1C[C@@H](N)[C@H](O)[C@@H](O[C@@H]2O[C@H](CO)[C@H](O)[C@@H]3OC4(O[C@H]23)O[C@H]([C@@H](N)CO)[C@H](O)[C@H](O)[C@H]4O)[C@@H]1O (stereo partly shown) [Hygromycin B],course of optical density (OD620) over time,continuous decrease in optical density
